Test results taken from article PMC10641818, “Development of First-in-Class Dual Sirt2/HDAC6 Inhibitors as Molecular Tools for Dual Inhibition of Tubulin Deacetylation” (Journal of Medicinal Chemistry, 2023).

Key:
Sirt2 [1] = target: T1, Sirt2 (Homo sapiens, UniProt Q8IXJ6); assay: Sirt2 in vitro deacetylation assay (ZMAL, trypsin-based fluorescence); assay type: biochemical; conditions: for IC50: deacetylation, mean ± SD
T1 construct: the respective sirtuin (Sirt1_134–747, Sirt2_56–356, or Sirt3_118–395) was mixed with; made in house; host or cells: Escherichia coli BL21 Star (DE3)
T1 sequence (Q8IXJ6 56-356): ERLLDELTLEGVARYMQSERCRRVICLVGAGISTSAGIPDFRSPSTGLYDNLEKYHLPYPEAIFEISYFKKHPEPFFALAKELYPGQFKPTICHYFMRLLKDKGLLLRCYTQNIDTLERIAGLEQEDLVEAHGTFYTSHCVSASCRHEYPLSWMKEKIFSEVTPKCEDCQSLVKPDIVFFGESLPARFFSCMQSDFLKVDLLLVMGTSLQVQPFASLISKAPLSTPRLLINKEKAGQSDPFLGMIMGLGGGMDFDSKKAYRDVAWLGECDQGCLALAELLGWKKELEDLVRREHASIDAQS

Sirt1 = target: T2, Sirt1 (Homo sapiens, UniProt Q96EB6); assay: Sirt1 in vitro deacetylation assay (ZMAL); assay type: biochemical
T2 construct: the respective sirtuin (Sirt1_134–747, Sirt2_56–356, or Sirt3_118–395) was mixed with; made in house; host or cells: Escherichia coli BL21 Star (DE3)
T2 sequence (Q96EB6 134-747): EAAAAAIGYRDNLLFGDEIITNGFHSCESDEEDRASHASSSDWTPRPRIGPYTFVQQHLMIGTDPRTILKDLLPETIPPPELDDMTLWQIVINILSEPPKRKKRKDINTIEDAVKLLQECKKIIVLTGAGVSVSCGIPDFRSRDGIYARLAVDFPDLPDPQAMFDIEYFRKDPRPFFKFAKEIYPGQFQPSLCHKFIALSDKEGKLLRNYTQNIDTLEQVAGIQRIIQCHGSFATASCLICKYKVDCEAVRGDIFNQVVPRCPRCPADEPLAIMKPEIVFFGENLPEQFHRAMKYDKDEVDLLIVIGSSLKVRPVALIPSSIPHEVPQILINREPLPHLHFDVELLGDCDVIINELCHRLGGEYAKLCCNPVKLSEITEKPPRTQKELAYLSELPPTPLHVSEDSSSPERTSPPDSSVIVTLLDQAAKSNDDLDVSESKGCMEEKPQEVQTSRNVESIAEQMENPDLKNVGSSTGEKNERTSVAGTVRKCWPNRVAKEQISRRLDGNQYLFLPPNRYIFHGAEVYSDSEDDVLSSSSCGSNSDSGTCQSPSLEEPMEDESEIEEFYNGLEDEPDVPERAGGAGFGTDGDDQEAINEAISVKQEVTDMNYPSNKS

Sirt3 = target: T3, Sirt3 (Homo sapiens, UniProt Q9NTG7); assay: Sirt3 in vitro deacetylation assay (ZMAL); assay type: biochemical
T3 construct: the respective sirtuin (Sirt1_134–747, Sirt2_56–356, or Sirt3_118–395) was mixed with; made in house; host or cells: Escherichia coli BL21 Star (DE3)
T3 sequence (Q9NTG7 118-395): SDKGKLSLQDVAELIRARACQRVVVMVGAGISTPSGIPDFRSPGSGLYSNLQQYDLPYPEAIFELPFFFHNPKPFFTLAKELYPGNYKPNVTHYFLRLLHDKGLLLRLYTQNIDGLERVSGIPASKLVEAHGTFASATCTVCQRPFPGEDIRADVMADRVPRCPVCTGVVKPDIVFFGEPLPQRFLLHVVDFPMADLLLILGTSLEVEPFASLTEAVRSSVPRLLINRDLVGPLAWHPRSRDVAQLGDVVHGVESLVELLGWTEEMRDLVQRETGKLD

HDAC1 = target: T4, HDAC1 (Homo sapiens, UniProt Q13547); assay: HDAC1 in vitro deacetylation assay (ZMAL); assay type: biochemical; conditions: deacetylation, mean ± SD
T4 construct: purchased BPS Bioscience 50051
T4 sequence (Q13547 whole entry): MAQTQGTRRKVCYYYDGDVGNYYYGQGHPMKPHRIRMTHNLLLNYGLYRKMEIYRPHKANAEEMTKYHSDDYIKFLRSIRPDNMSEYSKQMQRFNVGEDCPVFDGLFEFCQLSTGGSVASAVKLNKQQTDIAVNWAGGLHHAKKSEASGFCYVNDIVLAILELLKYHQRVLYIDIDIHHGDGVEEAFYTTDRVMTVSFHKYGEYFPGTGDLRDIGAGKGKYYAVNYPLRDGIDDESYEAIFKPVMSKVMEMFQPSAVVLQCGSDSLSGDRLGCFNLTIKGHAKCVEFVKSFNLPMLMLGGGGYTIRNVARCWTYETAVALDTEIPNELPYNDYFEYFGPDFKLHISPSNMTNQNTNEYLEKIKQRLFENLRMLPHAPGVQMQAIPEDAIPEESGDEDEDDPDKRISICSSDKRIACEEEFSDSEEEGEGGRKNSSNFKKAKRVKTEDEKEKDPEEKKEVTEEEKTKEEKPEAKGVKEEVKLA

Sirt2 (demyristoylation) = target: T5, Sirt2 (demyristoylation) (Homo sapiens, UniProt Q8IXJ6); assay: Discontinuous Sirt2 demyristoylation assay (ZMML substrate); assay type: biochemical; conditions: for IC50: mean ± SD
T5 construct: the respective sirtuin (Sirt1_134–747, Sirt2_56–356, or Sirt3_118–395) was mixed with; made in house; host or cells: Escherichia coli BL21 Star (DE3)
T5 sequence (Q8IXJ6 56-356): T1 sequence (Q8IXJ6 56-356)

[2] = test system: HGC27 gastric carcinoma cells; assay: Cell viability assay (MTS) HGC27; assay type: cell-based; conditions: 72 h; for HGC27 cellular effect: @ 50 μM
Procedure: (§1) Cell viability assays of HGC27 and PC-3M-luc cells were performed by using the Celltiter 96 Aqueous Nonradioactive Proliferation Assay (Promega). Cells were seeded in sterile 96-well plates at a density of 2000 cells per well and incubated overnight at 37 °C and 5% CO2. Compound or vehicle were added to a final concentration of 0.5% DMSO. […] Cells were seeded at densities of 10^4 cells/well for W1 cells or 2 × 10^3 cells/well for MCF-7 cells. Tests were performed in 96-well plates (Sarstedt AG, Nümbrecht, Germany). After incubation overnight, cells were supplemented with half logarithmic dilution series of the indicated compounds and DPBS (PAN Biotech GmbH, Aidenbach, Germany) as control. Then 72 h after addition of cytostatic treatment, the MTT solution (20 μL, 5 mg/mL) was added into the wells for 1 h at 37 °C and 5% CO2 until formazan crystals were formed. The supernatant was removed, and the cells were dissolved in 200 μL of DMSO. Absorption was analyzed at 570 nm, with background subtraction at 690 nm, using a plate reader (Thermomultiscan EX, Thermo, Schwerte, Germany). Cell viability was then determined by nonlinear regression and a four-parameter logistic equation with variable hill slope. […] The significance of the difference of the effects of 33 and 4 + 57 was determined by using an unpaired, two-tailed t test with Welch’s correction, implemented in GraphPad Prism 8.4.0 (GraphPad, USA). Statistical significance was accepted if p < 0.05. Asterisks indicate *p < 0.05, **p < 0.01.

W1 ovarian cancer cells = assay: Cell viability assay (MTT) W1; assay type: cell-based; conditions: 72 h; for W1 cellular effect: @ 50 μM
Procedure: as §1

[3] = test system: MCF-7 breast cancer cells; assay: Cell viability assay (MTT) MCF-7; assay type: cell-based; conditions: 72 h; for MCF-7 cellular effect: @ 50 μM
Procedure: as §1

[4] = test system: PC-3M-luc prostate cancer cells; assay: Cell viability assay (MTS) PC-3M-luc; assay type: cell-based; conditions: 72 h; for PC-3M-luc cellular effect: @ 50 μM
Procedure: as §1

HDAC6 = target: T6, HDAC6 (Homo sapiens, UniProt Q9UBN7); assay: HDAC6 in vitro deacetylation assay (ZMAL); assay type: biochemical; design: purchased BPS Bioscience 50006; conditions: deacetylation, mean ± SD
T6 sequence (Q9UBN7 1-1215): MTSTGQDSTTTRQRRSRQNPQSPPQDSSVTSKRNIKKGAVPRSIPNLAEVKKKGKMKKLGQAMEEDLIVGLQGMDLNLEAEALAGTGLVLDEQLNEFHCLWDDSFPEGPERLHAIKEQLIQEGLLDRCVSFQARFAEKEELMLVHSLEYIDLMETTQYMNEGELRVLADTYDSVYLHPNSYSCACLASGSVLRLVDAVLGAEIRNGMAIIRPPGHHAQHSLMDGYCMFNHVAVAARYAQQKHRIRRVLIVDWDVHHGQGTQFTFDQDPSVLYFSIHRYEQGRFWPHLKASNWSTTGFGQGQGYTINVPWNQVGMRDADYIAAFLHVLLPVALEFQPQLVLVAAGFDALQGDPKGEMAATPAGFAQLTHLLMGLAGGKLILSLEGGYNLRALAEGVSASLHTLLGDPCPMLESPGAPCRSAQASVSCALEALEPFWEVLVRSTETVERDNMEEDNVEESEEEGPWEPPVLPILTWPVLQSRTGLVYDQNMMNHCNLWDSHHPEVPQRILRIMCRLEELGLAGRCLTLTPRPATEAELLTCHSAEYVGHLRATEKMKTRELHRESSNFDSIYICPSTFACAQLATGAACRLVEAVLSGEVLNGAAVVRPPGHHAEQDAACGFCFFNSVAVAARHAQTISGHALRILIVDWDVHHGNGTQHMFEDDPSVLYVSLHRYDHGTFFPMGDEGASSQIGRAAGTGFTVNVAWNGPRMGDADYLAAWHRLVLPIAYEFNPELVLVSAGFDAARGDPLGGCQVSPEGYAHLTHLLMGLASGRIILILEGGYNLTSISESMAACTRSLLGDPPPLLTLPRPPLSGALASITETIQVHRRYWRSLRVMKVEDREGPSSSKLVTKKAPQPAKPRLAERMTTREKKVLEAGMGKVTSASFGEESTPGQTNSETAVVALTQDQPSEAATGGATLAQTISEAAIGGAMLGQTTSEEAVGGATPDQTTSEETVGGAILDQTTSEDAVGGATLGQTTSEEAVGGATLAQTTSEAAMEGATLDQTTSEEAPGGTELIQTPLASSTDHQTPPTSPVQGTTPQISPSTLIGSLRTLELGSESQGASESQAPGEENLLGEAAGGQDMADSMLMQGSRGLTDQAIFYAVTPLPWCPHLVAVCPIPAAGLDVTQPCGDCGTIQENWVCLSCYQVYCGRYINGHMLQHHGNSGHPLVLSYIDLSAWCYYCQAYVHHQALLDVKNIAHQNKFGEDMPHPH

Sirt2 [5] = target: T7, Sirt2 (Homo sapiens, UniProt Q8IXJ6); assay: Cell-based NanoBRET assay for Sirt2 target engagement in HEK293T cells; conditions: tracer SirReal-TAMRA 2 μM
T7 construct: expressed in transfected cells; host or cells: HEK293T
T7 sequence (Q8IXJ6 1-389): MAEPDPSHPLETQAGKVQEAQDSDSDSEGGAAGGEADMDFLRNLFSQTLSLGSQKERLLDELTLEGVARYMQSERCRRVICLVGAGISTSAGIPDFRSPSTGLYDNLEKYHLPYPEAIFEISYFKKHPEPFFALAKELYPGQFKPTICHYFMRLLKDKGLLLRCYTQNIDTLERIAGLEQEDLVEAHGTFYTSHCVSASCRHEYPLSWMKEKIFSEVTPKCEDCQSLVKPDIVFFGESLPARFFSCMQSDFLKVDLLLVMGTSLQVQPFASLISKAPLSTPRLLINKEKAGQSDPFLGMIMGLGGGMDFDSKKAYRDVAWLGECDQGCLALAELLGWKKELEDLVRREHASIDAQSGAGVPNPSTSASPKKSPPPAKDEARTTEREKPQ

Structure (SMILES)	IC50 (Sirt2 [1])	inhibition at 20 µM (Sirt1)	inhibition at 20 µM (Sirt3)	IC50 (HDAC1)	IC50 (Sirt2 (demyristoylation))	HGC27 cellular effect [2]	W1 cellular effect (W1 ovarian cancer cells)	MCF-7 cellular effect [3]	PC-3M-luc cellular effect [4]	IC50 (HDAC6)	inhibition at 20 µM (Sirt2 [1]; @ 20 μM)	Sirt2 inhibition (Sirt2 [1]; supplementary CSV, column IC50 Sirt2 [µM])	inhibition at 5 µM (Sirt2 (demyristoylation); @ 5 μM, read-out: Sirt2 (demyristoylation) percentual inhibition)	Cellular Sirt2 binding (NanoBRET) (Sirt2 [5])	EC50 ([2]; Homo sapiens, HGC-27, MTS, mean ± SD)	EC50 (W1 ovarian cancer cells; MTT, mean ± SD)	EC50 ([3]; Homo sapiens, MCF7, MTT, mean ± SD)	EC50 ([4]; PC-3M-luc, read-out: PC-3M-luc cell viability EC50, MTS, mean ± SD)
Cc1cc(C)nc(SCC(=O)Nc2ncc(Cc3cccc(OCc4cn(CCOCCOCCOCCOCCC(=O)Nc5ccc(C(=O)NCc6ccc(C(=O)NO)cc6)cc5)nn4)c3)s2)n1 [Compound 44, 4-((4-(1-(4-((3-((2-(2-((4,6-Dimethylpyrimidin-2-yl)thio)acetamido)thiazol-5-yl)methyl)phenoxy)methyl)-1H-1,2,3-triazol-1-yl)-3,6,9,12-tetraoxapentadecan-15-amido)benzamido)methyl)-N-hydroxybenzamide]	480 ± 40 nM	< 15%	< 15%	600 ± 30 nM	34000 ± 2000 nM	ni ^b (ni = no inhibition (cellular effect <20% @ 50 μM))	ni ^b (ni = no inhibition (cellular effect <20% @ 50 μM))	ni ^b (ni = no inhibition (cellular effect <20% @ 50 μM))	ni ^b (ni = no inhibition (cellular effect <20% @ 50 μM))	9.6 ± 0.3 nM	–	–	–	–	–	–	–	–
Cc1cc(C)nc(SCC(=O)Nc2ncc(Cc3cccc(OCc4cn(CCOCCOCCOCCOCCOCCOCCOCCOCCOCCOCCC(=O)Nc5ccc(C(=O)NCc6ccc(C(=O)NO)cc6)cc5)nn4)c3)s2)n1 [Compound 45, 4-((4-(1-(4-((3-((2-(2-((4,6-Dimethylpyrimidin-2-yl)thio)acetamido)thiazol-5-yl)methyl)phenoxy)methyl)-1H-1,2,3-triazol-1-yl)-3,6,9,12,15,18,21,24,27,30-decaoxatritriacontan-33-amido)benzamido)methyl)-N-hydroxybenzamide]	540 ± 10 nM	< 15%	< 15%	460 ± 50 nM	2800 ± 600 nM	ni ^b (ni = no inhibition (cellular effect <20% @ 50 μM))	ni ^b (ni = no inhibition (cellular effect <20% @ 50 μM))	ni ^b (ni = no inhibition (cellular effect <20% @ 50 μM))	ni ^b (ni = no inhibition (cellular effect <20% @ 50 μM))	17 ± 1 nM	–	–	–	–	–	–	–	–
CCCCC(=O)N(CCCC)Cc1ccc(C(=O)NO)cc1 [Compound 57, 4-((N-Butylpentanamido)methyl)-N-hydroxybenzamide]	–	–	–	–	–	–	–	–	–	–	< 15%	n.i.	< 15%	no Sirt2 binding	21100 ± 1600 nM	33600 ± 4100 nM	16300 ± 5900 nM	30100 ± 2300 nM
